From patent US12661415B2, “Isoindolinone compounds and imaging agents for imaging Huntingtin protein” (CHDI Foundation, Inc., priority 2021, dated 2026) come the findings set out here.

A short description of data set [1]: Unbound brain fraction (fu,brain) in mouse brain by equilibrium dialysis. The data set is classed as in vitro ADME. To be noted: 20% mouse brain homogenate, 5 μM, equilibrium dialysis 6 h at 37° C., average of triplicate. As to the method:
Compounds were tested for unbounded brain fraction (or free fraction in brain, fu,brain). It is an accepted standard in the CNS PET imaging field that compounds with low unbound fraction in brain (<5%) likely have high non-specific binding background that is undesirable for the detection of target binding. As a result, fu,brain is an important property in the design of PET ligands for brain imaging [see Zhang et al., Design and selection parameters to accelerate the discovery of novel central nervous system positron emission tomography (PET) ligands and their application in the development of a novel phosphodiesterase 2A PET ligand. J Med Chem 2013, 56 (11), 4568-79; Liu et al., Imaging Mutant Huntingtin Aggregates: Development of a Potential PET Ligand. J Med Chem 2020, 63 (15), 8608-8633].
Determining fu,brain in Mouse Brain by Equilibrium Dialysis. Dialysis membranes (12-14 kDa) (HTDialysis, Connecticut) were soaked in phosphate buffer (10 mM potassium phosphate and 0.8% sodium chloride buffer, pH 7.4 at 37° C.) for a minimum of 1 h, at this time ethanol was added (final concentration of 20% v/v) and membranes continued to soak for 30 min Mouse brain tissue was diluted in phosphate buffer in a […] (w/v) and homogenised using a Precellys 24 (Stretton Scientific, UK) to achieve a final concentration of 20% brain homogenate.
Test compounds prepared as DMSO stocks at 0.5 mM are diluted into brain homogenate to achieve 5 μM final substrate concentration (1% DMSO) and a t=0 sample was prepared by sampling 50 μL of into 400 μL of quench solution (Acetonitrile containing 0.1% formic acid and sulfisoxazole/tolbutamide/imipramine/labetalol 200 nM). Samples were matrix matched with the addition of 50 μL of assay buffer. The HTDialysis Teflon blocks (HTDialysis, Connecticut) were assembled with pre-soaked membrane between each receiver and donor well and clamped in the stainless steel pressure plate (HTDialysis, Connecticut). The lower compartment (acceptor side) was dosed with 120 μL of buffer and the upper compartment (donor side) was dosed with 120 μL of compound in homogenate. All test compounds and controls were completed in triplicate. The HT dialysis plate was sealed and incubated for 6 h at 37° C. shaking at 250 rpm.
Following the incubation, 50 μL of sample was removed from all donor and acceptor wells and transferred into a quench plate containing 400 μL of quench solution. All samples were matrix matched with 50 μL of the alternate blank matrix. Analytical samples were diluted 1:1 with water using the Janus Robot and analysed by LC-MS/MS.
Peak areas of donor and acceptor compartments were compared to determine percent unbound (% fu) and the average of triplicate measurements was reported. Reference T0 sample was used to calculate sample recovery (%). Control compounds were compared with historic and literature values to ensure assay functionality.

The target in data set [2] is T1, MBP-HTT(1-89)Q46-His(6×) (Exon1-Q46) protein aggregates (Homo sapiens, UniProt P42858, INS38QQQQQQQQQQQQQQQQQQQQQQQQQ).
T1 construct: MBP-HTT(1-89)Q46-His(6×); His(6×) (C); made in house
The data set can be described thus: Exon1-Q46 radioligand binding assay (RBA). The note with it: aggregated Exon1-Q46 1 μM; 0.3 nM ligand [3H3-methyl]-5-((5-methoxypyridin-2-yl)methoxy)-2-(pyrazin-2-yl)benzo[d]oxazole; 60 minutes at 37° C.; read-out: Potency Range (IC50). As to the method:
Exon1-Q46 Radioligand Binding Assay
For radioligand binding assays (RBA) MBP-HTT(1-89)Q46-His(6×) (“Exon1-Q46”) protein was generated based on a previous publication (Scherzinger et al. Cell, Vol. 90, 549-558, Aug. 8, 1997). For experiments 30 μM MBP-Exon1-Q46 was incubated with 150 μg/mL thrombin in assay buffer (150 mM NaCl, 50 mM Tris pH 8.0) and 2 mM CaCl2 for 16 hours at 37° C. Aggregated Exon1-Q46 was pelleted by centrifugation for 5 minutes at 13,000 rpm in a bench top centrifuge and re-dissolved in the same volume of assay buffer. Test compounds were prepared by titration in DMSO at 11 concentrations from 63 μM to 2 nM. For the RBA, Exon1-Q46 protein aggregates and test compounds were pre-incubated in assay buffer for 20 minutes at room temperature, in 100 μL/well in a 96-well plate (pp, round bottom). Then, ligand was added in 50 μL/well and incubated for 60 minutes at 37° C. Final assay concentrations were 1 μM to 30 pM test compound, 1 μM Exon1-Q46 protein (equivalent monomer concentration) and 0.3 nM ligand [^3H3-methyl]-5-((5-methoxypyridin-2-yl)methoxy)-2-(pyrazin-2-yl)benzo[d]oxazole. Samples were transferred onto GF/B filter plates and washed 2× with 200 μL PBS using a Filtermate Harvester. After drying filter plates for 1 hour at 55° C., the back of the plates were sealed with foil and 30 μL/well scintillation fluid (Packard MicroScint 40) added, incubated for 15 minutes in the dark and counted in a MicroBeta reader. For analysis, replicate data from independent assay plates were normalized towards 0% and 100% inhibition using control wells of vehicle (0% inhibition) and 1 μM unlabelled [^3H3-methyl]-5-((5-methoxypyridin-2-yl)methoxy)-2-(pyrazin-2-yl)benzo[d]oxazole (100% inhibition). IC50 values were determined with a sigmoidal inhibition model with four variables (top, bottom, slope, IC50) in a global fit using the normalized replicate data.
The results for various example compounds were as provided in the table below (+++<100 nM; ++100−500 nM; +>500 nM; ND: not determined): […]

T1 sequence (P42858 with tags, fused parts or gaps with the stated changes): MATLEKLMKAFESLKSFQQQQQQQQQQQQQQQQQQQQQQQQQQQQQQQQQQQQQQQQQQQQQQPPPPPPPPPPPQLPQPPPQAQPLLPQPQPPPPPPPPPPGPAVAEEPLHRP

As for `COc1cnc(COc2cnc3c(c2)CN(c2ccc(=O)n(C)n2)C3=O)c(F)c1` [Compound 12-8, 6-{3-[(3-Fluoro-5-methoxypyridin-2-yl)methoxy]-7-oxo-5H,6H,7H-pyrrolo[3,4-b]pyridin-6-yl}-2-methyl-2,3-dihydropyridazin-3-one], the “Mean Free Brain Fraction (%)” value in data set [1] stood at 65.0%. For the same compound, the concentration for half-maximal inhibition (IC50) in data set [2] was below 100 nM.

`COc1ccc(COc2ccc3c(c2F)C(=O)N(c2ccc(=O)n(C)n2)C3)nc1` [Compound 12-10, 7-Fluoro-6-[(5-methoxypyridin-2-yl)methoxy]-2-(1-methyl-6-oxo-1,6-dihydropyridazin-3-yl)-2,3-dihydro-1H-isoindol-1-one]: the “Mean Free Brain Fraction (%)” value in data set [1] amounted to 16.4%. The concentration for half-maximal inhibition (IC50) in data set [2] was below 100 nM.

On to `COc1ccc(COc2cc3c(cc2F)C(=O)N(c2ccc(=O)[nH]n2)C3)nc1` [Compound 13-1, 6-Fluoro-5-((5-methoxypyridin-2-yl)methoxy)-2-(6-oxo-1,6-dihydropyridazin-3-yl)isoindolin-1-one], for which, in data set [1], the “Mean Free Brain Fraction (%)” value was 6.6%. Moreover, in data set [2], the concentration for half-maximal inhibition (IC50) is below 100 nM.

Turning to `COc1ccc(COc2cc3c(cc2F)CN(c2ccc(=O)[nH]n2)C3=O)nc1` [Compound 13-2, 5-Fluoro-6-[(5-methoxy-2-pyridyl)methoxy]-2-(6-oxo-1H-pyridazin-3-yl)isoindolin-1-one], the “Mean Free Brain Fraction (%)” value in data set [1] is 6.5%. Also, the IC50 in data set [2] is below 100 nM.

With `COc1ccc(COc2cc(F)c3c(c2)C(=O)N(c2ccc(=O)[nH]n2)C3)nc1` [Compound 13-3, 4-Fluoro-6-[(5-methoxy-2-pyridyl)methoxy]-2-(6-oxo-1H-pyridazin-3-yl)isoindolin-1-one], the “Mean Free Brain Fraction (%)” value in data set [1] was determined as 6.2%. For the same compound, the half-inhibitory concentration (IC50) in data set [2] was below 100 nM.

For `COc1ccc(COc2cc3c(cc2F)CN(c2cn(C)c(=O)cn2)C3=O)nc1` [Compound 14-1, 5-Fluoro-6-((5-methoxypyridin-2-yl)methoxy)-2-(4-methyl-5-oxo-4,5-dihydropyrazin-2-yl)isoindolin-1-one], the “Mean Free Brain Fraction (%)” value in data set [1] is on record as 15.5%. Further, the IC50 in data set [2] was below 100 nM.

Regarding `COc1ccc(COc2cc3c(cc2F)CN(c2cnc(OC)cn2)C3=O)nc1` [Compound 14-2, 5-Fluoro-2-(5-methoxypyrazin-2-yl)-6-((5-methoxypyridin-2-yl)-methoxy)isoindolin-1-one], the “Mean Free Brain Fraction (%)” value in data set [1] is recorded as 0.7%. In addition, the concentration for half-maximal inhibition (IC50) in data set [2] is below 100 nM.

For `COc1ccc(COc2cc3c(cc2F)C(=O)N(c2cn(C)c(=O)cn2)C3)nc1` [Compound 14-3, 6-Fluoro-5-((5-methoxypyridin-2-yl)methoxy)-2-(4-methyl-5-oxo-4,5-dihydropyrazin-2-yl)isoindolin-1-one], the “Mean Free Brain Fraction (%)” value in data set [1] is given as 17.1%. In data set [2], the IC50 was below 100 nM.
